Results from publication PMC6172411, “Development of a Quantitative Assay for the Characterization of Human Collectin-11 (CL-11, CL-K1)” (Frontiers in Immunology, 2018).

Key:
[1] = target: T1, rCL-11 (recombinant collectin-11, CL-11, CL-K1) (Homo sapiens, UniProt Q9BWP8); assay: co-precipitation with D-mannose-agarose (western blot) and solid-phase binding to coated D-mannose-BSA; conditions: Ca2+ required (no binding in EDTA or Mg-EGTA); D-mannose presented as immobilised agarose or BSA conjugate; room temperature
T1 construct: gene COLEC11; no tag stated; homomeric disulfide-linked oligomers of trimers, monomer ~34 kDa reduced
T1 sequence (Q9BWP8 26-271): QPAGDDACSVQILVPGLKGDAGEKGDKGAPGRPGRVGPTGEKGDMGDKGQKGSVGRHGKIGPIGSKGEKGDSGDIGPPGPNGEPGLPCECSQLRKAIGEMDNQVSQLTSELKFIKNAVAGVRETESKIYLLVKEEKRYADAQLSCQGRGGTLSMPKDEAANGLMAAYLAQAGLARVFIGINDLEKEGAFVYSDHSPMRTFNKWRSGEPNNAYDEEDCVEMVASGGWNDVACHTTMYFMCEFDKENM

[2] = target: T1, rCL-11 (recombinant collectin-11, CL-11, CL-K1); assay: solid-phase competition ELISA, inhibition of rCL-11 binding to coated mannan; conditions: Ca2+ (TBS-Tw-Ca, 2.5 mM CaCl2), rCL-11 1 ug/ml, mannan-coated plate, room temperature

Row | Compound | co-precipitation with D-mannose-agarose (western blot) and solid-phase binding t [1] | IC50 [2] [mM]
1 | OC[C@H]1OC(O)[C@@H](O)[C@@H](O)[C@@H]1O (stereo partly drawn) [D-mannose] | bound to D-mannose and mannan in the presence of calcium | –
2 | C[C@@H]1OC(O)[C@@H](O)[C@H](O)[C@@H]1O (stereo partly drawn) [L-fucose] | – | 36.5
